Consider 17 compounds from PubChem BioAssay (NCI).

Test systems include K-562 leukemia; DLD-1 colon; SK-MEL-2 melanoma; XF 498 CNS; DMS 114 small cell lung; SNB-78 CNS; KM20L2 colon; MDA-MB-435; NCI/ADR-RES ovarian; T-47D breast.
Common to all, as to assay: NCI-60 cell line screen, 48 h

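Results reflect a 48-hour exposure of cells in 96-well plates to compound at five concentrations. TGI is the concentration that stops growth completely.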

Turning to `Cc1nc2nnc(C)n2c2c1C(=O)Nc1ccccc1N2`, the TGI with K-562 leukemia, in the test with DLD-1 colon, in the test on SK-MEL-2 melanoma, in the test with XF 498 CNS, with DMS 114 small cell lung and in the test on SNB-78 CNS was above 100 µM in each case. Also, in the test with KM20L2 colon, the TGI was above 100 µM.

On to `COc1cc2c(c(O)c1C)C(=O)C(Cl)=CC2=O`, for which the TGI with K-562 leukemia is 8.64 µM; with MDA-MB-435, 16.4 µM; in the test on DLD-1 colon, 48.5 µM; in the test on SK-MEL-2 melanoma it was 31.2 µM; with XF 498 CNS, 35.2 µM; in the test on DMS 114 small cell lung, 32.8 µM. For the same compound, the TGI in the test with NCI/ADR-RES ovarian came to 66.7 µM; in the test with SNB-78 CNS, 17.4 µM; with KM20L2 colon, 49.1 µM; in the test with T-47D breast, 5.22 µM.

In the case of `CC1(C)N=C(N)N=C(N)N1c1ccc(CCCCc2ccc(S(=O)(=O)F)cc2Cl)c(Cl)c1`, the TGI is 64.3 µM with K-562 leukemia; above 500 µM in the test on MDA-MB-435; 118 µM with DLD-1 colon; 20.3 µM with SK-MEL-2 melanoma; 3 µM in the test on XF 498 CNS; 16.4 µM with DMS 114 small cell lung. Besides, the TGI in the test on NCI/ADR-RES ovarian came out at 347 µM; in the test on SNB-78 CNS, 48.6 µM; in the test with KM20L2 colon, 163 µM; with T-47D breast it was 34.8 µM.

As to `C1CN2N3CCCC23C1` (centres undefined), the TGI in the test with K-562 leukemia, in the test on DLD-1 colon, with SK-MEL-2 melanoma, in the test on XF 498 CNS, in the test with DMS 114 small cell lung and in the test with SNB-78 CNS was above 100 µM throughout. Besides, in the test with KM20L2 colon, the TGI is above 100 µM.

As for `CC1CCC[P+](Cc2ccccc2)(c2ccccc2)CC1` (centres undefined), the TGI was above 100 µM in the test with K-562 leukemia; above 100 µM in the test with DLD-1 colon; 78.2 µM in the test with SK-MEL-2 melanoma; above 100 µM in the test with XF 498 CNS; 96.1 µM in the test with DMS 114 small cell lung; above 100 µM with SNB-78 CNS. In addition, in the test with KM20L2 colon, the TGI is above 100 µM.

On to `O=[N+]([O-])c1ccc(NSc2ccccc2)cc1`, for which the TGI is above 100 µM in the test on K-562 leukemia; 64 µM in the test on DLD-1 colon; above 100 µM in the test on SK-MEL-2 melanoma; 95.3 µM in the test with XF 498 CNS; above 100 µM with DMS 114 small cell lung; above 100 µM with SNB-78 CNS. Besides, in the test on KM20L2 colon, the TGI is above 100 µM.

Consider `O=C1Oc2cc3c(c4cccc1c24)OCN(c1ccc(Cl)cc1)C3`, for which the TGI with K-562 leukemia was 53.2 µM; with DLD-1 colon, above 54.2 µM; in the test on XF 498 CNS it was 45.6 µM; in the test with DMS 114 small cell lung it was above 57.2 µM; in the test on SNB-78 CNS it was above 100 µM; in the test on KM20L2 colon, above 100 µM.

Regarding `C[C@]12CCC(=O)C=C1CC[C@@H]1C2CC[C@]2(C)NC(=O)C(C#N)CC12` (some centres undefined), the TGI in the test with K-562 leukemia, with DLD-1 colon, in the test with SK-MEL-2 melanoma, in the test with XF 498 CNS, in the test with DMS 114 small cell lung and in the test on SNB-78 CNS was above 100 µM in each case. In addition, in the test on KM20L2 colon, the TGI was above 100 µM.

As to `O=C1NC(=O)C2C(=O)NC(=O)C1C2(c1ccccc1)c1ccc(Cl)cc1` (centres undefined), the TGI in the test on K-562 leukemia, with DLD-1 colon, in the test on SK-MEL-2 melanoma, with XF 498 CNS, in the test with SNB-78 CNS and in the test on KM20L2 colon was above 100 µM each time.

Regarding `CC1=C[C@@H]2Cc3occc3C(C)(C)[C@@H]2CC1`, the TGI turned out to be 42.6 µM in the test on K-562 leukemia; 32.8 µM in the test on DLD-1 colon; 24.5 µM in the test on SK-MEL-2 melanoma; 29.3 µM in the test on XF 498 CNS; 35.9 µM in the test with DMS 114 small cell lung; 66.6 µM with SNB-78 CNS. Besides, the TGI with KM20L2 colon came out at 33.8 µM.

For `CC1=CCCC(OC(N)=O)C1` (centres undefined), the TGI in the test with K-562 leukemia, in the test with DLD-1 colon, with SK-MEL-2 melanoma, with XF 498 CNS, in the test with SNB-78 CNS and with KM20L2 colon was above 100 µM throughout.

On to `CC(=O)OCCc1cccnc1/C=N/O`, for which the TGI in the test with K-562 leukemia, in the test on DLD-1 colon, in the test on SK-MEL-2 melanoma, with XF 498 CNS, with DMS 114 small cell lung and in the test with SNB-78 CNS was above 100 µM each time. Also, the TGI in the test with KM20L2 colon was above 100 µM.

Take `CCCCn1/c(=N/C(=S)N(C)C)ss/c1=N\C(=S)N(C)C`: the TGI in the test on K-562 leukemia, in the test on DLD-1 colon, with SK-MEL-2 melanoma, in the test on XF 498 CNS, in the test with SNB-78 CNS and in the test with KM20L2 colon was above 100 µM in each case.

In the case of `COc1ccc(N=Cc2cc(OC)c(OC)c(OC)c2)cc1`, the TGI in the test on K-562 leukemia, in the test with DLD-1 colon, with SK-MEL-2 melanoma, in the test on XF 498 CNS, in the test on DMS 114 small cell lung and with SNB-78 CNS was above 100 µM throughout. Moreover, the TGI with KM20L2 colon was above 100 µM.

Turning to `O=C(Nc1ccccc1[N+](=O)[O-])c1ccccc1`, the TGI in the test on K-562 leukemia, in the test with DLD-1 colon, with XF 498 CNS, with DMS 114 small cell lung, in the test on SNB-78 CNS and with KM20L2 colon was above 100 µM each time.

For the compound `C/C(=N\NC(N)=S)c1ccc(C)cc1C`, the TGI in the test with K-562 leukemia, in the test on DLD-1 colon, in the test on SK-MEL-2 melanoma, in the test with XF 498 CNS, with SNB-78 CNS and in the test with KM20L2 colon was above 100 µM throughout.

As to `CN1CCCNCCN(CCc2ccccn2)CCCN(C)CC1`, the TGI in the test with K-562 leukemia is above 66.1 µM; in the test with DLD-1 colon, above 100 µM; in the test on SK-MEL-2 melanoma, above 100 µM; with XF 498 CNS, above 100 µM; in the test with DMS 114 small cell lung it was above 58.2 µM; in the test on SNB-78 CNS, above 100 µM. For the same compound, in the test on KM20L2 colon, the TGI is above 100 µM.
